Experimental data as given in ChEMBL document CHEMBL5291721, “A preclinical secondary pharmacology resource illuminates target-adverse drug reaction associations of marketed drugs” (Nat Commun, 2023).

Key:
[1] = biological target: T1, Alpha-1A adrenergic receptor (Homo sapiens, UniProt P35348); assay type: functional, cell-based
T1 sequence (P35348 whole entry): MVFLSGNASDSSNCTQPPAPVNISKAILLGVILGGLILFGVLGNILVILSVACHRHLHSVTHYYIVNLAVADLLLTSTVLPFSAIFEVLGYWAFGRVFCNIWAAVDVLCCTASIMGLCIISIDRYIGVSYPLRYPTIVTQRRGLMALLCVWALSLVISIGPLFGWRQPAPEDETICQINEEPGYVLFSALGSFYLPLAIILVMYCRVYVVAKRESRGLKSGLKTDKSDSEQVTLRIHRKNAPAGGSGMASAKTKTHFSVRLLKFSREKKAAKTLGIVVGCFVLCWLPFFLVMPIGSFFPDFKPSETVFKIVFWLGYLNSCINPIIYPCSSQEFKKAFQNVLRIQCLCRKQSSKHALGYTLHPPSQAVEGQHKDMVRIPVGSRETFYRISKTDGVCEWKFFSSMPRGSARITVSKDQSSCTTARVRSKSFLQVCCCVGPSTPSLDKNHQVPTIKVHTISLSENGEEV

Adenosine receptor A3 = biological target: T2, Adenosine receptor A3 (Homo sapiens, UniProt P0DMS8)
T2 sequence (P0DMS8 whole entry): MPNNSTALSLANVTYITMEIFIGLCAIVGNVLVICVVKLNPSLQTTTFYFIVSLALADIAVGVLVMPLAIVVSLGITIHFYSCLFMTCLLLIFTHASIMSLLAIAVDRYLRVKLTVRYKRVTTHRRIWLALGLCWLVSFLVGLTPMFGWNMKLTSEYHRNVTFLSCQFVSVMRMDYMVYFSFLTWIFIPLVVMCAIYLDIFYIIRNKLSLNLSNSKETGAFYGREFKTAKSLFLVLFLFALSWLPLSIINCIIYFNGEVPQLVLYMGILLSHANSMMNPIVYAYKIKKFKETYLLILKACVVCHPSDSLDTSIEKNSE

[2] = biological target: T3, Prostaglandin G/H synthase 1 (Homo sapiens, UniProt P23219); assay type: functional
T3 sequence (P23219 whole entry): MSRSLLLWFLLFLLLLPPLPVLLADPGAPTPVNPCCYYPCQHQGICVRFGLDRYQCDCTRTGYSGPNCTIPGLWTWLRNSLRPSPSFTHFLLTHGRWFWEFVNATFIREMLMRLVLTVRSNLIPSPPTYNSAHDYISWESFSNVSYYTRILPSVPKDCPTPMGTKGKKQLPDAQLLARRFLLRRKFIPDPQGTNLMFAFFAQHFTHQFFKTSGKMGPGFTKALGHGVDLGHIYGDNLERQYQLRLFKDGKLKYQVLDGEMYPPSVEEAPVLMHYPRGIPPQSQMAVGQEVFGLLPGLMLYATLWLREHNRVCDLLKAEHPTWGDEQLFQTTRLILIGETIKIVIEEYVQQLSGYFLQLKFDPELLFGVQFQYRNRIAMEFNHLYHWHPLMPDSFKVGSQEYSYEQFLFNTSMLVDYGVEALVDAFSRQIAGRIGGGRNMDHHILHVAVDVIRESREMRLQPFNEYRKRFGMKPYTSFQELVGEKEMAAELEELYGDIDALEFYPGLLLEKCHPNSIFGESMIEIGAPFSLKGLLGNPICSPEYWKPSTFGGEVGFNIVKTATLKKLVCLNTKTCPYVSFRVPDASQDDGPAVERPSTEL

Prothrombin = Prothrombin (Homo sapiens, UniProt P00734); assay type: functional
Acetylcholinesterase = Acetylcholinesterase (Homo sapiens, UniProt P22303); assay type: functional
Acetylcholinesterase, sequence (P22303 whole entry): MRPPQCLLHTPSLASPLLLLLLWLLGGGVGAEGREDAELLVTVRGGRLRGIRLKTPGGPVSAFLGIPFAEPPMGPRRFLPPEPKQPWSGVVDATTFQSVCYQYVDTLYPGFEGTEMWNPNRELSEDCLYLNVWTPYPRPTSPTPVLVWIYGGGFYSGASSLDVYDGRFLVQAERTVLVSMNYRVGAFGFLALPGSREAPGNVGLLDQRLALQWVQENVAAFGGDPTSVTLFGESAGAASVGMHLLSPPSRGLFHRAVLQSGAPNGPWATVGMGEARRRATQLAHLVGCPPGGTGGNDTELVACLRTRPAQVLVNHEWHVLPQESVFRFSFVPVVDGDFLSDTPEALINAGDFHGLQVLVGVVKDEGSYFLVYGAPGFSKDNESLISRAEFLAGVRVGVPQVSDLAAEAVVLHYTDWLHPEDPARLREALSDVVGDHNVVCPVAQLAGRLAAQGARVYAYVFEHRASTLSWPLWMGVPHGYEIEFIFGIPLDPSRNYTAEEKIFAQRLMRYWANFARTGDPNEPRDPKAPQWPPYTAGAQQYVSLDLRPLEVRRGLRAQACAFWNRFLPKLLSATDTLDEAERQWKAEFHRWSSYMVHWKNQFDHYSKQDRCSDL

[3] = biological target: Sodium-dependent dopamine transporter (Homo sapiens, UniProt Q01959)
Sodium-dependent dopamine transporter, sequence (Q01959 whole entry): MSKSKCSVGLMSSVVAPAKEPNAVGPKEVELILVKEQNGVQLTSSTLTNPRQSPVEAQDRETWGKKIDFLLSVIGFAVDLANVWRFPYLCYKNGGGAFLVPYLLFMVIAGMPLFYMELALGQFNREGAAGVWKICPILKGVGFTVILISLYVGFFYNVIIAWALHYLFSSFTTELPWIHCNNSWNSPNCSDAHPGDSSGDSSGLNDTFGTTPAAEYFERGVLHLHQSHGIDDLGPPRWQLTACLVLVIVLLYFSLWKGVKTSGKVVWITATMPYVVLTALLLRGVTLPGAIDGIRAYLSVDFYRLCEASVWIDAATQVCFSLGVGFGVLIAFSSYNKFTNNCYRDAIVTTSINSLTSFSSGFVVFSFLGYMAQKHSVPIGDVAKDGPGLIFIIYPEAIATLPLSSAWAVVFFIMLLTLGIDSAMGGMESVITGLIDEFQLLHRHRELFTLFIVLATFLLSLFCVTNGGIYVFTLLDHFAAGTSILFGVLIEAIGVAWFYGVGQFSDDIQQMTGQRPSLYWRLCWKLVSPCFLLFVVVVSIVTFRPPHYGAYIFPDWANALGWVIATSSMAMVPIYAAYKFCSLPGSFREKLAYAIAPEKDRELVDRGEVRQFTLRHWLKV

[4] = biological target: T4, Amine oxidase [flavin-containing] A (Homo sapiens, UniProt P21397); assay type: functional
T4 sequence (P21397 whole entry): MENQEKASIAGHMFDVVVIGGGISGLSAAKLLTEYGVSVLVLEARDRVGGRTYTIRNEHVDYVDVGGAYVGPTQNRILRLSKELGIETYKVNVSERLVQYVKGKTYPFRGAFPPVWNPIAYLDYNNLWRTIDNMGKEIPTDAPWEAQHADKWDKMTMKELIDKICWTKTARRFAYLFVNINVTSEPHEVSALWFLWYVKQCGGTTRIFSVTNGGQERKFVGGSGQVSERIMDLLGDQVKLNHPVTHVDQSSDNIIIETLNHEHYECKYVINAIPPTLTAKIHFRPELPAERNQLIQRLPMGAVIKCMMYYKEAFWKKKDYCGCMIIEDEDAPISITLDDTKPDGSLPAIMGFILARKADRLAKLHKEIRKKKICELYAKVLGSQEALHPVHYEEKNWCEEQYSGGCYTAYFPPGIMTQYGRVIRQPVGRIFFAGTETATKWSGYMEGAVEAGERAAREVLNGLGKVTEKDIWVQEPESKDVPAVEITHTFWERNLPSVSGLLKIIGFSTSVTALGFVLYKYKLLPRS

D(3) dopamine receptor = D(3) dopamine receptor (Homo sapiens, UniProt P35462)
D(3) dopamine receptor, sequence (P35462 whole entry): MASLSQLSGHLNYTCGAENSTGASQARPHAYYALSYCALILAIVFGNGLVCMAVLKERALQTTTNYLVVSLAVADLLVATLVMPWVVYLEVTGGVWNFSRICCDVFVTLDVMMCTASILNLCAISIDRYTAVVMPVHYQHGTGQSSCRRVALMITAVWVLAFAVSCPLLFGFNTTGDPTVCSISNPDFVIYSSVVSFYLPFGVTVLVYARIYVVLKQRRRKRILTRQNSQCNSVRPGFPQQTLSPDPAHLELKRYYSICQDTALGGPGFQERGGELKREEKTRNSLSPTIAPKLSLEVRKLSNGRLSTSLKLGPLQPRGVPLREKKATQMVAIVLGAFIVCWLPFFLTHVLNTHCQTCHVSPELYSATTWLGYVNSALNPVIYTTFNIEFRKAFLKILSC

[5] = biological target: Voltage-gated inwardly rectifying potassium channel KCNH2 (Homo sapiens, UniProt Q12809); assay type: functional; details: read-out: AC50
Voltage-gated inwardly rectifying potassium channel KCNH2, sequence (Q12809 whole entry): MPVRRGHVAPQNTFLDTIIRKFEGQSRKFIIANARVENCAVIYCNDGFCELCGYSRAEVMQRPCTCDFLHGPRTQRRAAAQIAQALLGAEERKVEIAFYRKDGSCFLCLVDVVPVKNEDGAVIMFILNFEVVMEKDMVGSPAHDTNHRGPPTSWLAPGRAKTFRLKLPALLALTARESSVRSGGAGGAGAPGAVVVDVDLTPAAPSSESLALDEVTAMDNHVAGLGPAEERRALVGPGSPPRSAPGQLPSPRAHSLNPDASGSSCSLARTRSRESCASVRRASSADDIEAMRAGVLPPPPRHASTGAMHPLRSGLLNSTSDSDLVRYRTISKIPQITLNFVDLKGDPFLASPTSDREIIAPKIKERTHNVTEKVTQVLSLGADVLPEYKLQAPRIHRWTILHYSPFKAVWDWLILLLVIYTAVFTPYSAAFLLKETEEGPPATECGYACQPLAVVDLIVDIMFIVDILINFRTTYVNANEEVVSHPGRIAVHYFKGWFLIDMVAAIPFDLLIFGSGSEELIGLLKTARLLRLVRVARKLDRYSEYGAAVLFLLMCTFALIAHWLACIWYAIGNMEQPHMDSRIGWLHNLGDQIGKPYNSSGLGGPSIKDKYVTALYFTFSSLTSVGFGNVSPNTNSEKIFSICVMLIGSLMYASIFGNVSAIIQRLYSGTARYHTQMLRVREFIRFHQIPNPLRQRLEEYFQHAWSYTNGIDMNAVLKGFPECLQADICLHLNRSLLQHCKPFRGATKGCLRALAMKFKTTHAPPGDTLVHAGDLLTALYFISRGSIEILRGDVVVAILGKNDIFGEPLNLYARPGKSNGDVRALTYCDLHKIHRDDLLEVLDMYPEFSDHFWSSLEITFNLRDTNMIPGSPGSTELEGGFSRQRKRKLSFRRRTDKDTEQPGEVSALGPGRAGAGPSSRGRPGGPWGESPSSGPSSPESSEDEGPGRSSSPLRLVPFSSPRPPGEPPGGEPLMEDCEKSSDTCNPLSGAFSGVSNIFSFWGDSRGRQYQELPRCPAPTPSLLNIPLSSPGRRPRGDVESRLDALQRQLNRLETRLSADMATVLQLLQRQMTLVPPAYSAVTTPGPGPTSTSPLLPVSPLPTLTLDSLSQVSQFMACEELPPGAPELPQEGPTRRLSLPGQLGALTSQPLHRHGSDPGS

Estrogen receptor = biological target: T5, Estrogen receptor (Homo sapiens, UniProt P03372)
T5 sequence (P03372 whole entry): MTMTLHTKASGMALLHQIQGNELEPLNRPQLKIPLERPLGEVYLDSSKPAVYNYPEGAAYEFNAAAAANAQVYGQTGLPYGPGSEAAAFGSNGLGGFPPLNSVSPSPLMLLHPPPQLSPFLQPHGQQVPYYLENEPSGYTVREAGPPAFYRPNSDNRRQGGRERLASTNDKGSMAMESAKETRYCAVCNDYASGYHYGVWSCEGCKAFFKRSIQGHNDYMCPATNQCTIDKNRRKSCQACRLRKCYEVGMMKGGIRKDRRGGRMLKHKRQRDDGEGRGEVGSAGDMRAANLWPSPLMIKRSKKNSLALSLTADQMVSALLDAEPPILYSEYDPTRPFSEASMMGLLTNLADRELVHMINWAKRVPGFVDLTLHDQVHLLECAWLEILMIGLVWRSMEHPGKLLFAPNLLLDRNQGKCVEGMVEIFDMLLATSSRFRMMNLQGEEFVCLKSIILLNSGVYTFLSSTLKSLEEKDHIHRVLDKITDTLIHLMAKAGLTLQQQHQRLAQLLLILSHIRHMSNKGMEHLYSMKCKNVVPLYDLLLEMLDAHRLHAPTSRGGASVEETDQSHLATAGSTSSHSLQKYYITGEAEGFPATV

Mu-type opioid receptor = Mu-type opioid receptor (Homo sapiens, UniProt P35372)
Mu-type opioid receptor, sequence (P35372 whole entry): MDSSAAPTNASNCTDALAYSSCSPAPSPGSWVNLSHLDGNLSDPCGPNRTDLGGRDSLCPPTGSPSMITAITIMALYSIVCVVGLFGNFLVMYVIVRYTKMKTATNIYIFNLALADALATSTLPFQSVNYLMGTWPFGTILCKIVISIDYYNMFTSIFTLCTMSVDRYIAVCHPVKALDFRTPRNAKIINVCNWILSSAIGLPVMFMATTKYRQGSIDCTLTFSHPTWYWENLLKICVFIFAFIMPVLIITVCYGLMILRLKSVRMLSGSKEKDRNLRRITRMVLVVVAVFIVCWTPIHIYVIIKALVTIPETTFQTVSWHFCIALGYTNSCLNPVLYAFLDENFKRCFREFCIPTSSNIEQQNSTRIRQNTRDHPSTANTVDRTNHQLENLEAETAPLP

Thromboxane A2 receptor [6] = biological target: T6, Thromboxane A2 receptor (Homo sapiens, UniProt P21731); assay type: functional, cell-based
T6 sequence (P21731 whole entry): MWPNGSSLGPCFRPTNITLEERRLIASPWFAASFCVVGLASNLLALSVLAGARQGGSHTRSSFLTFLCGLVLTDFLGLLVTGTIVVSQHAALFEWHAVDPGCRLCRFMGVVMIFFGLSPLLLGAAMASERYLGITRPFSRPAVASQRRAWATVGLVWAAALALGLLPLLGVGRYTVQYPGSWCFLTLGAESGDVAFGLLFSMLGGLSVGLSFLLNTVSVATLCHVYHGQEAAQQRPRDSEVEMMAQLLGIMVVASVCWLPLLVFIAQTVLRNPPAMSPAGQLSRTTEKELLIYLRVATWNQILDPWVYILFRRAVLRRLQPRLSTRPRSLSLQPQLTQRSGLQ

[7] = biological target: 5-hydroxytryptamine receptor 2B (Homo sapiens, UniProt P41595); assay type: functional, cell-based
5-hydroxytryptamine receptor 2B, sequence (P41595 whole entry): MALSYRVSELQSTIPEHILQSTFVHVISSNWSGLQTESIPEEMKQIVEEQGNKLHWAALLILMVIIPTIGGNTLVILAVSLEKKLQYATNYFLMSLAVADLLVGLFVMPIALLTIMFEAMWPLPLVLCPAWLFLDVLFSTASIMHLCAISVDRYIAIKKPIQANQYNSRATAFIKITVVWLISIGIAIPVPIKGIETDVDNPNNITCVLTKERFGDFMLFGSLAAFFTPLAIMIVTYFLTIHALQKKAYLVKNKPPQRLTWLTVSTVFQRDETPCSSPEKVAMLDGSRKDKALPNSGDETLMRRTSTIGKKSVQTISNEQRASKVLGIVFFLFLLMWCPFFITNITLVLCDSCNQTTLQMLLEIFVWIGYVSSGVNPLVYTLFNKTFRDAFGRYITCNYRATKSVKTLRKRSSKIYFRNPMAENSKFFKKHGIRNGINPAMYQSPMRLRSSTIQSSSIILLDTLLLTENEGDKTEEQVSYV

[8] = biological target: T3, Prostaglandin G/H synthase 1; assay type: functional; remark: listed apart in the source
Thromboxane A2 receptor [9] = biological target: T6, Thromboxane A2 receptor; assay type: functional, cell-based; remark: listed apart in the source
[10] = biological target: cGMP-inhibited 3',5'-cyclic phosphodiesterase 3A (Homo sapiens, UniProt Q14432); assay type: functional
Further: assay procedure not described here.

Compound | AC50 [1] [µM] | AC50 (Adenosine receptor A3) [µM] | AC50 [2] [µM] | AC50 (Prothrombin) [µM] | AC50 (Acetylcholinesterase) [µM] | AC50 [3] [µM] | AC50 [4] [µM] | AC50 (D(3) dopamine receptor) [µM] | AC50 [5] [µM] | AC50 (Estrogen receptor) [µM] | AC50 (Mu-type opioid receptor) [µM] | AC50 (Thromboxane A2 receptor [6]) [µM] | AC50 [7] [µM] | AC50 [8] [µM] | AC50 (Thromboxane A2 receptor [9]) [µM] | AC50 [10] [µM]
Nc1ccc(C(=O)O)cc1 [AMINOBENZOIC ACID] | > 30 | > 30 | 2.18 | > 30 | > 30 | > 30 | > 30 | > 30 | > 30 | > 30 | > 30 | > 30 | > 30 | 4.69 | > 30 | > 30
O=C1CN=C(c2ccccc2)c2c(sc3c2CCCC3)N1 [BENTAZEPAM] | 12.4 | 14.3 | > 1 | > 30 | > 30 | > 30 | > 30 | > 30 | > 30 | > 30 | > 30 | > 30 | > 30 | > 30 | > 30 | > 30
O=C(O)CCCN1CCC(O[C@@H](c2ccc(Cl)cc2)c2ccccn2)CC1 [BEPOTASTINE] | > 30 | > 30 | > 30 | > 30 | > 30 | > 30 | > 30 | > 30 | > 30 | > 30 | > 30 | > 30 | > 30 | > 30 | > 30 | > 30
CN(Cc1cc(Br)cc(Br)c1N)C1CCCCC1 [BROMHEXINE] | > 30 | 27.9 | > 30 | > 30 | > 30 | 12.3 | > 30 | > 30 | 20 | > 30 | > 30 | > 30 | > 30 | > 30 | > 30 | > 30
O=C(c1ccc(F)c(F)c1Nc1ccc(I)cc1F)N1CC(O)([C@@H]2CCCCN2)C1 [COBIMETINIB] | 13.6 | > 30 | > 30 | > 30 | > 30 | 7.3 | > 30 | 24.1 |  | > 30 | 0.271 | 17.6 | > 30 | > 30 | > 3 | > 30
C[C@@H]1C[C@H]2[C@@H]3C[C@H](F)C4=CC(=O)C(Cl)=C[C@]4(C)[C@@]3(F)[C@@H](O)C[C@]2(C)[C@@]1(O)C(=O)CO [HALOMETASONE] | 23.3 | > 30 | > 30 | > 30 | > 30 | > 30 | > 30 |  | > 30 | > 30 | > 30 | > 30 | > 30 | > 30 | 18.6 | > 30
